After the bases stand the sugars from the 5' end (letter, count) and the backbone: PS all phosphorothioate, else s phosphorothioate and o phosphodiester by linkage. Methylation of C is not given here. e = 2'-O-(2-methoxyethyl) (MOE); k = constrained ethyl (cEt); d = 2'-deoxy (DNA); m = 2'-O-methyl

The target in the series is HSD17B13. The note with it: ASO, HepaRG.

On to “TGGCATGGCTACAGAT (sugars k3 d9 k3 e1, PS)”, for which the target mRNA inhibition is 26% (0.02 µM); 22% (0.078 µM); 39% (0.313 µM); 68% (1 µM); 75% (1.25 µM); 70% (5 µM).
On to AATCACAAGTAAGGTA (sugars k3 d10 k3, PS), for which the target mRNA inhibition (1 µM) stood at 52%.
With ATAGAGTTGCACCGTT (sugars k3 d10 k3, PS), where the note is “1 µM”, the target mRNA inhibition stood at 57%.
In turn, TGATTGAGTTCTCCAC (sugars k3 d10 k3, PS) had a target mRNA inhibition (1 µM) of 48%.
With CGTGGCCGCACACTGA (sugars k3 d10 k3, PS), for the setting “1 µM”, the target mRNA inhibition is 42%.
“TGTGGCATGGCTACAG (sugars kkdddddddddkekek, PS)” came in with a target mRNA inhibition (1 µM) of 22%.
On to TTAAATCAGGCAGTCA (sugars k3 d10 k3, PS), for which the target mRNA inhibition (1 µM) amounted to 45%.
For GGGACCAAGGATATAT (sugars k3 d10 k3, PS), under “1 µM”, the target mRNA inhibition came out at 17%.
Regarding “TGGGACCAAGGATATA (sugars k3 d9 k3 e1, PS)”, under “1 µM”, the target mRNA inhibition stood at 55%.
Consider AAATTGTCTAAACATC (sugars k3 d10 k3, PS), for which the target mRNA inhibition (1 µM) is 24%.
With TAGTCCATGCAAAAGC (sugars k3 d10 k3, PS), the target mRNA inhibition (1 µM) was 66%.
Regarding “CCAGTACAGTTCCTTT (sugars k3 d9 k3 e1, PS)”, the target mRNA inhibition was determined as 10% (0.02 µM); 20% (0.078 µM); 43% (0.313 µM); 76% (1 µM); 73% (1.25 µM); 83% (5 µM).
With TTCCGAAAAAAGTGGA (sugars k3 d10 k3, PS), where the note is “1 µM”, the target mRNA inhibition came out at 13%.
ATCTTAAGAGAAGGTG (sugars k3 d10 k3, PS) yielded a target mRNA inhibition (1 µM) of 43%.
ATTATTCACCACGATT (sugars k3 d10 k3, PS): the target mRNA inhibition (1 µM) stood at 29%.
On to TTAAGCAGATGGCTTA (sugars k3 d10 k3, PS), for which the target mRNA inhibition (1 µM) was 0%.
Take AGGGAAGATCTGGCTG (sugars k3 d10 k3, PS): the target mRNA inhibition (1 µM) turned out to be 4%.
In turn, AGACCAAGTAGCTTAC (sugars k3 d10 k3, PS) returned a target mRNA inhibition (1 µM) of 42%.
For the setting “1 µM”, CTTGATCTCTTAGCTG (sugars k3 d10 k3, PS) showed a target mRNA inhibition of 51%.
Same read-out and setting: the result for “AACTUCATAGTGGACT (sugars k3 d1 m1 d8 k3, PS)” reads 38%.
On to CTAGTTTTCGGCACTC (sugars k3 d10 k3, PS), for which the target mRNA inhibition (1 µM) stood at 33%.
CCCAGCATTATTCACC (sugars k3 d10 k3, PS) came in with a target mRNA inhibition (1 µM) of 19%.
Still for that read-out and setting: next, TAAAGTGCTAAGTAGT (sugars k3 d10 k3, PS): 50%.
Turning to GTTAGTATAGTTATCT (sugars k3 d10 k3, PS), the target mRNA inhibition reads like this: (0.02 µM) 0%; (0.078 µM) 17%; (0.313 µM) 40%; (1 µM) 66%; (1.25 µM) 74%; (5 µM) 86%.
As to “TTAAAATAGAGTCGGT (sugars kkdddddddddkekek, PS)”, the target mRNA inhibition (1 µM) worked out at 51%.
The sequence TTAAAATAGAGTCGGT (sugars k3 d10 k3, PS) came in with a target mRNA inhibition (1 µM) of 65%.
In turn, GGATAGTCCATGCAAA (sugars k3 d10 k3, PS) showed a target mRNA inhibition (1 µM) of 64%.
TGGTTCAGTCCTTGTG (sugars k3 d10 k3, PS) yielded a target mRNA inhibition (1 µM) of 50%.
Turning to ATTAGATGGTAAGGAG (sugars k3 d10 k3, PS), the target mRNA inhibition (1 µM) came to 4%.
As to “TATGTAATAGCCAGTA (sugars kkdddddddddkekek, PS)”, the target mRNA inhibition (0.02 µM) stood at 9%; the target mRNA inhibition (0.078 µM) is 33%; the target mRNA inhibition (0.313 µM) was 58%; the target mRNA inhibition (1 µM) was determined as 78%; the target mRNA inhibition (1.25 µM) came to 67%; the target mRNA inhibition (5 µM) was 85%.

These data come from the OligoGym collection.
